Patent publication US20130259929A1, “USE OF A PHOSPHOPEPTIDE ABLE TO BLOCK HER3/P85 INTERACTION FOR THE TREATMENT OF HER2 HYPER-EXPRESSING TUMOURS” (priority 2010, published 2013)
Non-standard residues stand in square brackets, D forms with d. No end group written: not given here. pY = N[C@@H](Cc1ccc(OP(=O)(O)O)cc1)C(=O)O

Columns and labels:
[1] = molecular target: T1, p85 and p110a (PI3K catalytic sub-unit) interaction (Homo sapiens, UniProt P27986); assay: Immunoprecipitation with anti-p85, blot anti-p110α, in transfected cells; assay type: cell-based; settings: transfected cells (FIG. 2D)
T1 construct: Whole cell lysates have been imunoprecipitated with anti-p85 antibody; endogenous in cells; host or cells: MCF7, BT474, MDA-MB-453
Procedure: (§1) Immunoprecipitation. MCF7, BT474 and MDA-MB-453 cell lines have been plated at 5×10^5 concentration in 60 mm plates. On subsequent day cells have been transfected with 1257 phosphopeptide and contrrol phosphopeptide. After 40 hours the cells have been washed two times with cold PBS and extracted with lysis buffer [(50 mM Tris HCl (pH 7.4), 250 mM NaCl, 0.1% Triton X-100, 5 mM EDTA, 50 mM NaF, 1 mM PMSF, 5 mM Na3VO4 e 50 mmol/L protease inhibitors (Roche, Milan, IT)]. Whole cell lysates have been imunoprecipitated with anti-p85 antibody (#06-496) in the presence of protein G (Pierce, Milan, IT). Whole proteins and immunocomplexes then have been subjected to 8% SDS-PAGE and transferred on nitrocellulose filter. The proteins have been detected by immunodecoration using anti-ErbB3 and anti-p110α antibodies.
(§2) The peptide has been transfected using Lipofectamine in all three cell lines. […] This binding is required in order PI3K kinase to be activated.

[2] = system: HER2; assay: HER2 expression level and ErbB-2 homodimer (Western blot) after peptide transfection; assay type: cell-based, human
Procedure: (§3) Treatments and lmmunodecorations. […] Briefly the cells have been plated at 5×10^5 concentration in 60 mm plates. […] At the end of the treatment the cells have been lysed with RIPA buffer [150 mM NaCl, 1% NP-40, 0,5% sodium deoxycholate (DOC), 0.1% SDS, 50 mM TrisHCl (pH 8), 1 mM PMSF, 1 mM EGTA, 50 mM NaF, 50 mM Na3VO4 and protease inhibitors (Roche, Milano, IT)] in order to analyze the expression levels of phosphorylated and total ErbB-3, ErbB-2, ERK and HSP-70 proteins. In order to analyze the levels of Akt phosphorylation and expression, the cells have been lysed in NP-40 buffer [1% NP-40, 10% glycerol, 137 mM NaCl, 20 mM TrisHCl (pH 7.4), 50 mM NaF, 1 mM PMSF, 5 mM Na3VO4, protease inhibitors (Roche, Milano, IT)]. Cell lysates have been incubated on ice for 20 minutes and centrifuged at 14000 rpm for 20 minutes. RIPA buffer obtained cell extracts have been boiled for 5 minutes at 95° C., while NP40 buffer lysed samples have been boiled at 65° C. for 5 minutes. Samples have been subjected to SDS-PAGE and transferred on nitrocellulose filters (Bio-Rad, Milan, IT). Then the filters have been incubated with interest antibodies, washed and incubated with specific secondary horse radish peroxidase (HRP) conjugated antibodies. After thorough washing, nitrocellulose peroxidase activity has been detected by chemiluminescence (Lite-blot-Euroclone, Milano, IT)

[3] = system: MCF7 cells; assay: Soft agar anchorage-independent growth; assay type: cell-based, human; settings: compared to parental or scr peptide transfected cells
Procedure: (§4) Soft agar. […] Briefly cells (1×10^4) have been re-suspended in 5 ml of 0.3% agar in RPMI or DMEM supplemented with 10% FCS, and quickly stained on a solid layer of 1.2% agar in DMEM/RPMI. Cultures have been carried out for 4 weeks. Then colonies have been stained with viable colony specific neutral red solution (Sigma, Milan, IT), and then counted. Photographies have been taken using Leica DM IRE2 microscope and Leica FW4000 software (Leica Microsystems, Milan, IT).
(§5) Then it has been attempted to understand whether the peptide is suitable to reduce the cell ability to grow under anchorage-independence conditions.

[4] = system: BT474 cells; assay: Soft agar anchorage-independent growth; assay type: cell-based, human; settings: compared to parental or scr peptide transfected cells
Procedure: as §4, §5

[5] = system: MAPK phosphorylation; assay: MAPK (ERK1/2) phosphorylation (Western blot) after peptide transfection; assay type: cell-based, human; settings: MCF7, BT474 and MDA-MB-453 cells (FIG. 4A); Herceptin where combined
Procedure: Peptide transfection. In order to inhibit the p85 and ErbB3 interaction, MCF7, BT474 and MDA-MB-453 cell lines have been transfected using 80, 100, and 180 μg, respectively, of the following phosphopeptides:
as §3, with “Samples have been subjected to SDS-PAGE and transferred on nitrocellulose filters (Bio-Rad, Milan, IT). Then the filters have been incubated with interest antibodies, washed and incubated with specific secondary horse radish peroxidase (HRP) conjugated antibodies.” left out

[6] = molecular target: T2, p85 and HER3 interaction (Homo sapiens, UniProt P27986); assay: Immunoprecipitation with anti-p85, blot anti-HER3, in transfected cells; assay type: cell-based; settings: three cell lines, 48 hr after Lipofectamine transfection (FIG. 2B)
T2 construct: Whole cell lysates have been imunoprecipitated with anti-p85 antibody; endogenous in cells; host or cells: MCF7, BT474, MDA-MB-453
Text: as §1, with “After 40 hours the cells have been washed two times with cold PBS and extracted with lysis buffer [(50 mM Tris HCl (pH 7.4), 250 mM NaCl, 0.1% Triton X-100, 5 mM EDTA, 50 mM NaF, 1 mM PMSF, 5 mM Na3VO4 e 50 mmol/L protease inhibitors (Roche, Milan, IT)].” left out
as §2

T1 sequence (P27986 whole entry): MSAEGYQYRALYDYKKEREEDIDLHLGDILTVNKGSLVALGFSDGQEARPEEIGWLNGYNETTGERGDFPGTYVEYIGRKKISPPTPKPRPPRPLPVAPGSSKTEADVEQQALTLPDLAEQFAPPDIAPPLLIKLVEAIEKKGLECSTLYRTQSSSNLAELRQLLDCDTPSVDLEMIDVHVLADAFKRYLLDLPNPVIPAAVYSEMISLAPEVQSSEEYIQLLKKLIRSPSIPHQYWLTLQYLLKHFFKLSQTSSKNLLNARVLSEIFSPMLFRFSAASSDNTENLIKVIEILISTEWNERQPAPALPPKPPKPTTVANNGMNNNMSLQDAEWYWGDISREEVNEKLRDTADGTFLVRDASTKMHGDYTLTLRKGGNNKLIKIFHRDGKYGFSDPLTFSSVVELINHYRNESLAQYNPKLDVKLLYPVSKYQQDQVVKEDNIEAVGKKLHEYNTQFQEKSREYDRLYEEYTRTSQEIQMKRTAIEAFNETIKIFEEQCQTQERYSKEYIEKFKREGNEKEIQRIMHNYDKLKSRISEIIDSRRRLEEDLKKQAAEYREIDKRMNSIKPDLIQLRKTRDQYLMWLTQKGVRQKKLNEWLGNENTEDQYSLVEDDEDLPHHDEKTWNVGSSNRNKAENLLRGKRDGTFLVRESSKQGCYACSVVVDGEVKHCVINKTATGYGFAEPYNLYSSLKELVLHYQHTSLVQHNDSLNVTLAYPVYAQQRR
T2 sequence (P27986 whole entry): as above

RDGGGPGGDpYAAMGACPA (RDGGGPGGD[pY]AAMGACPA; listed as Homo sapiens) [1257 phosphopeptide]
inhibition of p85 and p110a interaction [1]: inhibits p85 from interacting with p110a | total level of HER2 ([2]; after peptide treatment (FIG. 4A), poorly appreciable in MDA-MB-453): decrease | ErbB-2 homodimer levels ([2]; not reducing conditions (FIG. 5B)): favours the formation of ErbB-2 homodimer | reduction of colony number [3]: up to 80% | reduction of colony number [4]: up to 80% | MAPK phosphorylation [5]: inhibition of MAPK phosphorylation | inhibition of p85 and HER3 interaction [6]: inhibits effectively p85 and HER3 interaction
